Source: patent publication US7071190B2, “Inhibitors to tubulin polymerization” (Rigel Pharmaceuticals, Inc., priority 2002, dated 2006)
pIC50: −log10 of the molar value.

System: MAP-rich tubulin protein from bovine brain
Test: Tubulin polymerization turbidity assay (A340 over time)
Type: biochemical
Settings: 10 μM compound, FIG. 1 (a), (b)
Experimental: FIG. 1. Tubulin polymerization inhibitory activity of the compounds of the invention was assayed by following the turbidity of a tubulin-containing solution over time. Polymerization of tubulin generates microtubules, the presence of which increases the absorbance of the assay solution over time. Effective inhibition manifests as a reduction of rate of absorbance increase at 340 nanometers. (a) 10 μM of compounds 19, 39, 43, 54 and 62, as well as 10 μM nocodazole as a positive control and DMSO as a negative control. (b) 10 μM of compounds 1, 88, 95, and 54, as well as 10 μM as well a positive controls 1 and 2 and DMSO as a negative control. (c) 0.4, 2.0 and 10 μM compound 54 versus 0.4, 2.0 and 10 μM nocodazole as a positive control and DMSO as a negative control.
Measurement of the tubulin polymerization can be achieved using known methodologies. For example, assays for tubulin polymerization may be performed using a kit from Cytoskeleton (Denver, Colo.) and as described by Tahir, S. K., et al, (2001) Cancer Res., 61:5480–5.
The assay measures tubulin polymerization as an increase in turbidity (A340) over time. Assays for tubulin polymerization were performed using a kit from Cytoskeleton (Denver, Colo.) and as described by Tahir, S. K., et al, (2001) Cancer Res., 61: 5480–5, incorporated herein by reference, and as described below.
To determine the ability of the compounds to inhibit microtubule polymerization in vitro, the following protocol was followed: (i) 70 μl ice-cold MAP-rich tubulin protein from bovine brain (1.5 mg/ml final concentration) was added to polymerization buffer (80 mM PIPES pH6.8, 1 mM EGTA, 1 mM MgCl2, 1 mM GTP) in a quartz microcuvette; (ii) 0.7 μl of DMSO or 100X stock of control (nocodazole) or test compound (thienopyrimidine) in DMSO were added to the cuvette; (iii) the contents were mixed by pipefting gently; (iv) the polymerization reaction was initiated by placing the cuvette in pre-warmed (37° C.) cuvette holder in Beckman spectrophotometer; (v) the absorbance was monitored at 340 nm at 30 second intervals for 20 minutes. Tubulin polymerization result in increased turbidity in the reaction solution, which is registered as an increase in absorbance at 340 nm. Inhibitors of tubulin polymerization are detected by a reduction in the rate, the initial slope, and/or extent of the turbidity change (i.e., max. absorbance at 340 nm) in plots of ΔA340 versus time.

SMILES	Inhibition of tubulin polymerization (reduction of rate of absorbance increase at 340 nanometers)
S=C(NNc1ncnc2cc(-c3ccccc3)sc12)NC1CC1 [Compound 19]	Inhibition activity is observed
S=C(NCC1CC1)NNc1ncnc2cc(-c3ccccc3)sc12 [Compound 62]	Inhibition activity is observed
Cc1cccc(-c2cc3ncnc(NNC(=S)NC4CC4)c3s2)c1 [Compound 39]	Inhibition activity is observed
COC(=O)Nc1nc2ccc(C(=O)c3cccs3)cc2[nH]1 [nocodazole, reference compound]	Inhibition activity is observed
COCCNC(=S)NNc1ncnc2cc(-c3ccccc3Cl)sc12 [Compound 95]	Inhibition activity is observed
S=C(NNc1ncnc2cc(-c3ccccc3Cl)sc12)NC1CC1 [Compound 43]	Inhibition activity is observed
Cc1cc(C)cc(-c2cc3ncnc(NNC(=S)NC4CC4)c3s2)c1 [Compound 54]	Inhibition activity is observed
COCCNC(=S)NNc1ncnc2cc(-c3cccc(C)c3)sc12 [Compound 88]	Inhibition activity is observed

Same assay, conditions: 0.4, 2.0 and 10 μM, FIG. 1 (c)

SMILES	Inhibition of tubulin polymerization (reduction of rate of absorbance increase at 340 nanometers)
COC(=O)Nc1nc2ccc(C(=O)c3cccs3)cc2[nH]1 [nocodazole, reference compound]	Inhibition activity is observed
Cc1cc(C)cc(-c2cc3ncnc(NNC(=S)NC4CC4)c3s2)c1 [Compound 54]	Inhibition activity is observed

System: A549 cells
Test: Bromodeoxyuridine (BrdU) proliferation assay
Type: cell-based, human
Settings: BrdU ELISA 48 hours after addition of compound; tested 0.03-10 uM; cell line not given (A549 method; SW-480 and MDA-MB-231 also used); read-out: Assay Result (IC50μM)
Experimental: In order to determine the antiproliferative activity of microtubule inhibitors, A549 cells were plated in 96 well plates at 2000 cells/well 24 hours prior to the addition of a compound of the invention in 80 ul growth media (F12K, 10% FBS, Pen/Strep). Prior to addition to cells, compounds were solubilized in 100% DMSO to 5 mM and serially diluted in 6 semi-log steps in 100% DMSO. The diluted compounds were added to cells by two 15.8-fold dilution steps, the first being a dilution into a 23% ethanol/H2O mixture and the second being a dilution into growth media. Finally, these dilutions were followed by a 1:1 dilution onto cells. The resulting final solvent concentration was 0.2% DMSO/0.75% ethanol. Compounds were tested at final concentrations of 10, 3, 1, 0.3, 0.1 and 0.03 uM. Forty-eight hours after the addition of compound, the effects on cellular proliferation were measured using a cell proliferation BrdU ELISA (Roche Molecular Biochemicals, Cat.#1 669 915).

pIC50	SMILES
4.97	COc1cc([N+](=O)[O-])ccc1NC(=S)NNc1ncnc2cc(-c3ccccc3)sc12 [Compound 18]
5.29	COc1cc([N+](=O)[O-])ccc1NC(=S)NNc1ncnc2cc(-c3ccccc3)sc12 [Compound 17]

Same assay, conditions: Homo sapiens, A549, 48 h, BrdU ELISA 48 hours after addition of compound; tested 0.03-10 uM; cell line not given (A549 method; SW-480 and MDA-MB-231 also used); read-out: Assay Result (IC50μM)

SMILES	pIC50
S=C(NCC1CC1)NNc1ncnc2cc(-c3ccccc3)sc12 [Compound 62]	6.64
COCCNC(=S)NNc1ncnc2cc(-c3ccccc3)sc12 [Compound 73]	6.69
COCCNC(=S)NNc1ncnc2cc(-c3ccc(OC)cc3)sc12 [Compound 92]	5.93
COCCNC(=S)NNc1ncnc2cc(-c3ccccc3Cl)sc12 [Compound 95]	5.83
Cc1cccc(-c2cc3ncnc(NNC(=S)NC4CCCC4)c3s2)c1 [Compound 46]	6.59
S=C(NNc1ncnc2cc(-c3ccccc3Cl)sc12)NC1CC1 [Compound 43]	6.36
S=C(NCC1CCCO1)NNc1ncnc2cc(-c3ccccc3)sc12 (stereo not shown) [Compound 63]	6.68
CCOC(=O)c1ccccc1NC(=S)NNc1ncnc2cc(-c3ccccc3)sc12 [Compound 10]	5.87
S=C(NCCN1CCOCC1)NNc1ncnc2cc(-c3ccccc3)sc12 [Compound 68]	5.22
NC(=S)NNc1ncnc2cc(-c3ccccc3)sc12 [Compound 26]	5.24
S=C(NCCc1ccccc1)NNc1ncnc2cc(-c3ccccc3)sc12 [Compound 58]	5.95
Cc1cccc(-c2cc3ncnc(NNC(=S)NCCCO)c3s2)c1 [Compound 48]	5.84
S=C(NCC(c1ccccc1)c1ccccc1)NNc1ncnc2cc(-c3ccccc3)sc12 [Compound 105]	5.09
COc1ccc(NC(=S)NNc2ncnc3cc(-c4ccccc4)sc23)cc1OC [Compound 15]	5.17
S=C(NC[C@H]1CCCO1)NNc1ncnc2cc(-c3ccccc3)sc12 [Compound 64]	6.73

Further lines, results first:

pIC50	SMILES
6.84	S=C(NNc1ncnc2cc(-c3cccc(Cl)c3)sc12)NC1CC1 [Compound 42]
7.03	S=C(NCc1ccco1)NNc1ncnc2cc(-c3ccccc3)sc12 [Compound 69]
7.05	S=C(NNc1ncnc2cc(-c3ccccc3)sc12)NC1CC1 [Compound 19]
7.22	COCCNC(=S)NNc1ncnc2cc(-c3cccc(C)c3)sc12 [Compound 88]
7.41	Cc1cccc(-c2cc3ncnc(NNC(=S)NC4CC4)c3s2)c1 [Compound 39]
7.59	Cc1cccc(-c2cc3ncnc(NNC(=S)NC(C)C)c3s2)c1 [Compound 86]
7.62	CC(C)NC(=S)NNc1ncnc2cc(-c3ccccc3)sc12 [Compound 72]
7.70	CCCNC(=S)NNc1ncnc2cc(-c3ccccc3)sc12 [Compound 71]
7.80	Cc1cc(C)cc(-c2cc3ncnc(NNC(=S)NC4CC4)c3s2)c1 [Compound 54]
7.89	COCCNC(=S)NNc1ncnc2cc(-c3cc(C)cc(C)c3)sc12 [Compound 100]

Same assay, conditions: antiproliferative activity

SMILES	Activity ranking: most active compounds of the invention	Activity ranking: particularly active examples of the compounds of the invention
S=C(NNc1ncnc2cc(-c3ccccc3)sc12)NC1CC1 [Compound 19]	most active	particularly active
S=C(NCC1CC1)NNc1ncnc2cc(-c3ccccc3)sc12 [Compound 62]	most active	particularly active
Cc1cccc(-c2cc3ncnc(NNC(=S)NC4CC4)c3s2)c1 [Compound 39]	most active	particularly active
COCCNC(=S)NNc1ncnc2cc(-c3ccccc3)sc12 [Compound 73]	most active	particularly active
COCCNC(=S)NNc1ncnc2cc(-c3ccc(OC)cc3)sc12 [Compound 92]	–	particularly active
COCCNC(=S)NNc1ncnc2cc(-c3ccccc3Cl)sc12 [Compound 95]	–	particularly active
COc1cc([N+](=O)[O-])ccc1NC(=S)NNc1ncnc2cc(-c3ccccc3)sc12 [Compound 18]	–	particularly active
Cc1cccc(-c2cc3ncnc(NNC(=S)NC4CCCC4)c3s2)c1 [Compound 46]	most active	particularly active
S=C(NNc1ncnc2cc(-c3ccccc3Cl)sc12)NC1CC1 [Compound 43]	most active	particularly active
S=C(NCC1CCCO1)NNc1ncnc2cc(-c3ccccc3)sc12 (stereo not shown) [Compound 63]	most active	particularly active
Cc1cccc(-c2cc3ncnc(NNC(=S)NC(C)C)c3s2)c1 [Compound 86]	most active	particularly active
Cc1cccc(-c2cc3ncnc(NNC(=S)NCC4COC(C)(C)O4)c3s2)c1 (stereo not shown) [Compound 82]	–	particularly active
S=C(NNc1ncnc2cc(-c3ccc4c(c3)OCO4)sc12)Nc1ccccc1 [Compound 52]	–	particularly active
Cc1cc(C)cc(-c2cc3ncnc(NNC(=S)NC4CC4)c3s2)c1 [Compound 54]	most active	particularly active
CC(C)NC(=S)NNc1ncnc2cc(-c3ccccc3)sc12 [Compound 72]	most active	particularly active
CCOC(=O)c1ccccc1NC(=S)NNc1ncnc2cc(-c3ccccc3)sc12 [Compound 10]	–	particularly active
COCCNC(=S)NNc1ncnc2cc(-c3cccc(C)c3)sc12 [Compound 88]	most active	particularly active
COc1cc([N+](=O)[O-])ccc1NC(=S)NNc1ncnc2cc(-c3ccccc3)sc12 [Compound 17]	–	particularly active
S=C(NCCN1CCOCC1)NNc1ncnc2cc(-c3ccccc3)sc12 [Compound 68]	–	particularly active
NC(=S)NNc1ncnc2cc(-c3ccccc3)sc12 [Compound 26]	–	particularly active
CCCNC(=S)NNc1ncnc2cc(-c3ccccc3)sc12 [Compound 71]	most active	particularly active
S=C(NCc1ccco1)NNc1ncnc2cc(-c3ccccc3)sc12 [Compound 69]	most active	particularly active
S=C(NNc1ncnc2cc(-c3cccc(Cl)c3)sc12)NC1CC1 [Compound 42]	most active	particularly active
S=C(NCCc1ccccc1)NNc1ncnc2cc(-c3ccccc3)sc12 [Compound 58]	–	particularly active
Cc1cccc(-c2cc3ncnc(NNC(=S)NCCCO)c3s2)c1 [Compound 48]	–	particularly active
S=C(NCC(c1ccccc1)c1ccccc1)NNc1ncnc2cc(-c3ccccc3)sc12 [Compound 105]	–	particularly active
COc1ccc(NC(=S)NNc2ncnc3cc(-c4ccccc4)sc23)cc1OC [Compound 15]	–	particularly active
COCCNC(=S)NNc1ncnc2cc(-c3cc(C)cc(C)c3)sc12 [Compound 100]	most active	particularly active
S=C(NC[C@H]1CCCO1)NNc1ncnc2cc(-c3ccccc3)sc12 [Compound 64]	most active	particularly active
